Data set [1] relates to Ostertagia, Trichostrongylus and Haemonchus. Kind of data set: Anthelmintic efficacy in infected sheep (parasite counts at slaughter). In kind it is in vivo. Here is the method: To ensure that the compounds were tested in heavily infected animals sheep harbouring a heavy naturally acquired parasitic infection were chosen and further infected with larvae of the species Ostertagia, Trichostrongylus and Haemonchus. The infections were allowed to reach maturity. […] A second group of sheep, the controls, were injected with an aqueous solution of levamisole dihydrogen phosphate at a dose rate equivalent to 6 mg of levamisole base per kilogram of animal body weight.
Half of the sheep in each group were slaughtered 7 days after treatment and the parasites in the abomasum, small intestine, large intestine and lungs were counted.

The conditions of data set [2]: bovine, in vivo.
In a further data set the test system is liver fluke. The settings on record: mature and immature liver fluke; cited from earlier work.
The nature of data set [3]: Level of nitroxynil in the blood of cattle after injection (high pressure liquid chromatography).
A short description of data set [4]: Level of levamisole in the blood of cattle after injection (high pressure liquid chromatography).
The conditions of data set [5]: cited from earlier work.
The next data set has as its system helminth. As to conditions: ruminants sheep and cattle; cited from earlier work.
The next data set is described as follows: in vivo. As to conditions: bovine, 10 mg/kg.
The mark [6] stands for this setting: cattle, injected solution in polyethylene glycol 200 (Example 2 (a)), 17 mg of the salt/kg, each of four animals.
Setting [7] is: compared with levamisole dihydrogen phosphate.

The text below walks through data of US4618618A, “Compounds and compositions” (priority 1981, dated 1986).

Where a name gives a salt, the structure may show the parent alone. Read-outs that look alike come from different tables or passages of the source.

What is called Tmax is the time from dosing to the highest level.

On to `O=P(O)(O)O.c1ccc([C@H]2CN3CCSC3=N2)cc1` [levamisole dihydrogen phosphate, reference compound], for which the “eradication of the helminth infection” value in data set [1] (sheep slaughtered 7 days after treatment, injected aqueous solution, 6 mg levamisole base/kg) is on record as “either completely or essentially completely eradicated”; in data set [1] (sheep slaughtered 28 days after treatment, injected aqueous solution, 6 mg levamisole base/kg), “either completely or essentially completely eradicated”. Further, the “time to maximum level of levamisole in the blood” value in data set [2] (6 mg/kg) was at most 1 h. In data set [2] (sc), the “course of the level of levamisole in the blood (in words)” value was “quickly rises to a maximum and quickly declines”.
On to `N#Cc1cc(I)c(O)c([N+](=O)[O-])c1` [nitroxynil, 4-cyano-2-iodo-6-nitrophenol], for which the “activity against liver fluke” value in the data set with liver fluke is “effective against both mature and immature liver fluke”.
For the compound `N#Cc1cc(I)c(O)c([N+](=O)[O-])c1.c1ccc([C@H]2CN3CCSC3=N2)cc1` [Example 1, L-2,3,5,6-tetrahydro-6-phenylimidazo[2,1-b]thiazolium 4-cyano-2-iodo-6-nitrophenoxide], in data set [3] (setting [6]), the “time to maximum level of nitroxynil in the blood” value is “approximately 24 hours”. Further, the “rise of blood level of nitroxynil to a maximum (in words)” value in data set [3] (compared with nitroxynil N-ethyl-D-glucamine salt) was “much more slowly”. In addition, the “nitroxynil levels obtained in the blood (in words)” value in data set [3] (parenteral administration) is “therapeutic levels”. Moreover, the “eradication of the helminth infection” value is recorded as “either completely or essentially completely eradicated” in data set [1] (sheep slaughtered 7 days after treatment, injected 14.5 mg of the salt/kg in polyethylene glycol 200) and “either completely or essentially completely eradicated” in data set [1] (sheep slaughtered 28 days after treatment, injected 14.5 mg of the salt/kg in polyethylene glycol 200). In addition, the “level of levamisole in the blood 4 hours after the injection, % of the maximum level” value in data set [4] (cattle, injected solution in polyethylene glycol 200 (Example 2 (a)), 17 mg of the salt/kg, 4 hours) is reported as “at least 50%”. Moreover, in data set [4] (setting [6]), the “time to maximum level of levamisole in the blood” value is on record as “approximately 2 hours”. For the same compound, in data set [4] (setting [7]), the “duration of the level of levamisole in the blood (in words)” value was “maintained for a longer period of time”. In addition, the “rise of blood level of levamisole to a maximum (in words)” value in data set [4] (setting [7]) is recorded as “much more slowly”; in data set [4] (compared with levamisole dihydrogen phosphate, listed as nitroxynil salt of levamisole), “more slowly”. Further, the “levamisole levels obtained in the blood (in words)” value in data set [4] (parenteral administration) was “therapeutic levels”.
In the case of `c1ccc([C@H]2CN3CCSC3=N2)cc1` [levamisole, L-2,3,5,6-tetrahydro-6-phenylimidazo[2,1-b]thiazole], the base catalysed hydrolysis result in data set [5] is listed as “subject to base catalysed hydrolysis”. The “activity as an anthelmintic agent relative to tetramisole” value with helminth is recorded as “approximately twice as active as tetramisole”.
As to `N#Cc1cc(I)c(O)c([N+](=O)[O-])c1` [nitroxynil N-ethyl-D-glucamine salt], the time of peak concentration (Tmax) in “in vivo” was determined as 4 h.
Take `c1ccc(C2CN3CCSC3=N2)cc1` (racemic) [tetramisole, D,L-2,3,5,6-Tetrahydro-6-phenylimidazo[2,1-b]thiazole]: the base catalysed hydrolysis result in data set [5] is “subject to base catalysed hydrolysis”.
